Data as given in ChEMBL document CHEMBL1124176, “1-Methyl-4-phenyl-1,2,3,6-tetrahydropyridine analogues. Inactivation of monoamine oxidase by conformationally rigid analogues of N,N-dimethylcinnamylamine” (J Med Chem, 1988).

Key:
[1] = Cytotoxicity measured as % loss of cells after 120 min; format: cell-based; conditions: rat, 2 h
[2] = Cytotoxicity measured as % loss of cells after 60 min; format: cell-based; conditions: rat, 1 h
[3] = Cytotoxicity measured as % loss of cells after 90 min; format: cell-based; conditions: rat
[4] = target: Amine oxidase [flavin-containing] B (Bos taurus) (UniProt P56560)
Sequence of Amine oxidase [flavin-containing] B (Bos taurus) (P56560 whole entry, looked up): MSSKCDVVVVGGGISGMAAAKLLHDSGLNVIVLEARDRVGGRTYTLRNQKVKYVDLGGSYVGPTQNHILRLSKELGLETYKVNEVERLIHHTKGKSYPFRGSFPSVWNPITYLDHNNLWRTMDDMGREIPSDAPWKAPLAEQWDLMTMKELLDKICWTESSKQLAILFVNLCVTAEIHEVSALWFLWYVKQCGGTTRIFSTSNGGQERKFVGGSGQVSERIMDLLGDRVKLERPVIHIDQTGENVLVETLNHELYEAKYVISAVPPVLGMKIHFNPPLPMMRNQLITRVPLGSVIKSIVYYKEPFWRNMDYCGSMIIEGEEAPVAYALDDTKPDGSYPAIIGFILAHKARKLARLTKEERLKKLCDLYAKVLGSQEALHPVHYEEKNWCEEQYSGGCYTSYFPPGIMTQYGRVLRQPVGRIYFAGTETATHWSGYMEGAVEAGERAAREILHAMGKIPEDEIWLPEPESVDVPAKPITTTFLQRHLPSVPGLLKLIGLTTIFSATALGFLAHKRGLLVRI

[5] = target: Amine oxidase [flavin-containing] B (Bos taurus) (UniProt P56560); experiment: Inactivation of monoamine oxidase measured as kinetic constant, KI at 0.8-4 conc range
[6] = target: Amine oxidase [flavin-containing] B (Bos taurus) (UniProt P56560); experiment: Inactivation of monoamine oxidase measured as kinetic constant, Kinact at 0.8-4 conc range

Ki [4] [µM]	Ki [5] [µM]	kinact [6] [s⁻¹]	Compound	Loss of cells [1] [%]	Loss of cells [2] [%]	Loss of cells [3] [%]
510			NC1C=C(c2ccccc2)CCC1 (stereo not given)	60	28	35
			C#CCN(C)Cc1ccccc1.CN(C)C1C=C(c2ccccc2)CCC1 (stereo not given)		100	
1040			CN(C)C1C=C(c2ccccc2)CCC1 (stereo not given)		100	
1350	1330	0.00356	CN(C)C/C=C/c1ccccc1			
			C#CCN(C)Cc1ccccc1.CN1CC=C(c2ccccc2)CC1	5	6	11
			CN1CC=C(c2ccccc2)CC1	81	12	58
1900			C/C=C(\C)c1ccccc1			
			C#CCN(C)Cc1ccccc1.NC1C=C(c2ccccc2)CCC1 (stereo not given)	69	24	51
